This is an account of results in patent publication US12390487B2, “Antiseptic skin prep composition” (Solventum Intellectual Properties Company, priority 2019, dated 2025).

The nature of the data set: Solubility of dye in alcohol systems. In kind it is physicochemical. An excerpt:
It was observed that, Ponceau 4R Dye precipitated on the second day. The others (Brilliant Blue, D&C Green, Carmoisine) were stable over 30 days at room temperature with no precipitation observed. PVPK 120 postpones the precipitation of anionic dyes with CHG to various degrees. It was observed that the azo dye structure with 3 sulphonate groups precipitated out of solution quicker.

Turning to `O=C1OC2(c3ccccc31)c1cc(I)c(O)c(I)c1Oc1c2cc(I)c(O)c1I` [Erythrosine], the “Solubility in alcohol systems” value was “good solubility”.
